# Measured values reported in US6806085B1, “2-deoxyglucose-6-phosphate (2-DOG-6-P) phosphatase DNA sequences as selection marker in plants” (IPK Gatersleben, priority 1997, dated 2004).
# Experiments:
# Nicotiana tabacum cells = conditions: cited from earlier work
# pea calli = test: Pea calli on 0.075% 2-DOG containing medium; format: cell-based, Pisum sativum
# Excerpt: Calli of pea plants Pisum sativum were placed on 0.075% 2-DOG containing B5 medium. A: calllus of untransformed plant on 0.075% 2-DOG; B: callus of a plant expressing the DOG^R1 gene under the control of the 35S promoter on 0.075% 2-DOG. The construct described in Example 10 was transferred to pea plants of Pisum sativum by Agrobacteria-mediated transformation. Calli of transformed and untransformed plants were placed on 0.075% 2-DOG containing medium.
# [1] = tested on: Picea excelsa (spruce) cells; conditions: cited from earlier work
# [2] = tested on: root growth of many plants; conditions: addition of 2-DOG; cited from earlier work
# potato shoots = test: Potato shoots on 0.05% 2-DOG containing MS medium; format: in vivo, Solanum tuberosum var. Solara; conditions: five weeks
# Excerpt: Shoots of potato plants Solanum tuberosum var. Solara were placed on 0.05% 2-DOG containing MS medium. A: five weeks old shoot of an untransformed plant; B: five weeks old shoot of a plant expressing the DOG^R1 gene under the control of the 35S promoter. The construct described in Example 3 was transferred to potato plants Solanum tuberosum var. Solara by Agrobacteria-mediated transformation. The regenerated shoots were cultivated on selection-free medium. After six weeks the tips of the shoots were transferred to 0.05% 2-DOG containing MS medium.
# tobacco seedlings = test: Tobacco seedlings on 0.05% 2-DOG containing MS medium; format: in vivo, Nicotiana tabacum Var. Samsun NN; conditions: four weeks
# Excerpt: Seeds of Nicotiana tabacum Var. Samsun NN were sterilized and placed on 0.05% 2-DOG containing MS medium. A: four weeks old seedlings of an untransformed plant; B: four weeks old seedlings of a plant expressing the DOG^R1 gene under the control of the 35S promoter. In order to detect the resistance of seedlings expressing the DOG^R1 gene seeds of the tobacco plants described in Examples 5 and 6 as well as seeds of untransformed tobacco plants were sterilized and placed on 0.05% 2-DOG containing MS medium.
# yeast cells = conditions: addition of 2-DOG; cited from earlier work
# tobacco leaf disks = test: Toxicity of 2-DOG for plant cells, tobacco leaf pieces on 2-DOG-containing MS medium; format: cell-based, Nicotiana tabacum Var. Samsun NN; conditions: MS medium with 0.01 to 0.5% 2-DOG, two weeks
# Excerpt: (§1) FIGS. 2A and 2B Cultivation of tobacco (Nicotiana tabacum Var. Samsun NN, A-D) and potato (Solanum tuberosum var. Solara, E-H) leaf disks on 2-DOG-containing MS medium. A, E: control MS medium without addition of 2-deoxyglucose; B, F: MS medium with 0.05% 2-DOG; C, G:MS medium with 0.1% 2-DOG; D, H: MS medium with 0.5% 2-DOG. For the detection of the toxicity of 2-DOG leaf pieces (about 1 cm^2) of sterile tobacco and potato plants were cultivated for two weeks on Murashige and Skoog medium (Murashige & Skoog (1962) Physiol. Plant. 15, 473), to which 0.01 to 0.5% 2-DOG had been added.
# potato leaf disks = test: Toxicity of 2-DOG for plant cells, potato leaf pieces on 2-DOG-containing MS medium; format: cell-based, Solanum tuberosum var. Solara; conditions: MS medium with 0.01 to 0.5% 2-DOG, two weeks
# Excerpt: as §1
smiles,measurement,setting,value
"O=CC[C@@H](O)[C@H](O)[C@H](O)CO [2-DOG, 2-deoxyglucose]",cell growth in tissue culture,Nicotiana tabacum cells,strongly inhibited
same,shoot development from callus,pea calli; callus of untransformed plants,did not develop Shoots
same,shoot development from callus,pea calli; callus transformed with DOG^R1 gene under 35S promoter,developed shoots
same,cell growth in tissue culture,[1],strongly inhibited
same,root growth,[2],inhibits the root growth
same,shoot growth,potato shoots; shoot expressing DOG^R1 gene under 35S promoter,exhibits root and stem growth
same,shoot growth,potato shoots; shoot of untransformed plant,has not grown
same,seedling survival,tobacco seedlings; seedlings expressing DOG^R1 gene under 35S promoter,vital
same,seedling survival,tobacco seedlings; seedlings of untransformed plants,died at an early stage of development
same,respiration and growth of cells,yeast cells,inhibition of the respiration and the growth of cells
same,effect on leaf disks,tobacco leaf disks,caused the leaf disks to die
same,effect on leaf disks,potato leaf disks,caused the leaf disks to die
